The test system of one data set is ICAM-1. The data set can be described thus: CAM ELISA: ICAM-1 expression on TNF-stimulated HUVECs. The data set is classed as cell-based. To be noted: 1 μM compound, primary human umbilical vein endothelial cells, compound 24 hours, then TNF 5 ng/mL 6 hours; for inhibition at 1 µM: Homo sapiens, Endothelial cell. The procedure, abridged:
(§1)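 Pooled primary HUVECs (passages 3–7), hydrocortisone-free medium, pretreated 24 h with compound at 37° C, then stimulated with TNF 5 ng/mL for 6 h. Surface VCAM-1, ICAM-1 or E-selectin measured by cell ELISA: specific mouse primary antibody, HRP anti-mouse secondary, OPD development, absorbance at 490 nm.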

The subject of a further data set is VCAM-1. The data set can be described thus: CAM ELISA: VCAM-1 expression on TNF-stimulated HUVECs. The format is cell-based. To be noted: 1 μM compound, primary human umbilical vein endothelial cells, compound 24 hours, then TNF 5 ng/mL 6 hours; for inhibition at 1 µM: Homo sapiens, Endothelial cell. The method, boiled down:
as §1

In another data set the test system is E-Selectin. The data set can be described thus: CAM ELISA: E-selectin expression on TNF-stimulated HUVECs. The data set is classed as cell-based. To be noted: 1 μM compound, primary human umbilical vein endothelial cells, compound 24 hours, then TNF 5 ng/mL 6 hours; for inhibition at 1 µM: Homo sapiens, Endothelial cell. The method, boiled down: as §1

The source of these data is patent US6579882B2, “Cell adhesion-inhibiting antiinflammatory compounds” (Abbott Laboratories, priority 1998, dated 2003).

Molecules are shown by their SMILES.

Regarding `Nc1csc(-c2cc3c(Oc4ccc(Cl)cc4)cncc3s2)n1` [Example 295, 2-[4-(4-Chlorophenoxy)thieno[2,3-c]pyridin-2-yl]-1,3-thiazol-4-amine], the melting point was 168 to 170 °C (dec.). The same molecule had an inhibition at 1 µM in the data set on ICAM-1 of 56%. Further, 1 µM produced 44% inhibition in the data set on VCAM-1. For the same molecule, in the data set on E-Selectin, the inhibition at 1 µM is 59%.
Take `NNC(=O)c1cc2c(Oc3ccc(C(F)(F)F)cc3)cncc2s1` [Example 158, 4-[4-(Trifluoromethyl)phenoxy]thieno[2,3-c]pyridine-2-carbohydrazide]: the melting point lay in the range of 146 to 147 °C. The molecule further had an inhibition at 1 µM in the data set with ICAM-1 of 65%. Also, in the data set on VCAM-1, 1 µM produced 26% inhibition. Also, the inhibition at 1 µM in the data set with E-Selectin came to 61%.
For the molecule `CCOCCOCCOCC1(c2ccc(Oc3cncc4sc(-c5nnc(N)o5)cc34)cc2)CC1` [Example 228, 5-{4-[4-(1-{[2-(2-Ethoxyethoxy)ethoxy]methyl}cyclopropyl)phenoxy]thieno[2,3-c]pyridin-2-yl}-1,3,4-oxadiazol-2-amine], the melting point was 113 to 114 °C. In the data set with ICAM-1, the “CAM ELISA % Inhibition at 1 μM ICAM-1” value came out at 64% and 1 µM produced 68% inhibition. Further, in the data set with VCAM-1, the “CAM ELISA % Inhibition at 1 μM VCAM-1” value is given as 52% and at 1 µM the inhibition was 54%. Further, in the data set with E-Selectin, the “CAM ELISA % Inhibition at 1 μM E-Selectin” value came to 67% and the inhibition at 1 µM stood at 70%.
The molecule `O=C(NCCO)c1cc2c(Oc3ccc(Cl)cc3)cnc(Cl)c2s1` [Example 313, 7-Chloro-4-(4-chlorophenoxy)-N-(2-hydroxyethyl)thieno[2,3-c]pyridine-2-carboxamide] gave a melting point of 129 to 132 °C. The molecule further showed an inhibition at 1 µM in the data set with ICAM-1 of 68%. Moreover, 1 µM produced 39% inhibition with VCAM-1. The molecule also had an inhibition at 1 µM in the data set on E-Selectin of 57%.
For `NC(=O)/C=C/c1cc2c(Oc3ccc(Br)cc3)cncc2s1` [Example 259, (E)-3-[4-(4-Bromophenoxy)thieno[2,3-c]pyridin-2-yl]propenamide] the same measures were 195 to 196 °C, 59%, 57% and 63%.
On to `FC(F)(F)c1nc(-c2cc3c(Oc4ccc(Cl)cc4)cncc3s2)no1` [Example 284, 4-(4-Chlorophenoxy)-2-[5-(trifluoromethyl)-1,2,4-oxadiazol-3-yl]thieno[2,3-c]pyridine], for which the melting point is 52 to 54 °C. In addition, the inhibition at 1 µM with ICAM-1 was found to be 68%. This molecule also showed an inhibition at 1 µM in the data set with VCAM-1 of 45%. Testing at 1 µM with E-Selectin gave an inhibition of 56%.
For `NC(=NO)c1cc2c(Oc3ccc(Cl)cc3)cncc2s1` [Example 249, 4-(4-Chlorophenoxy)-N′-hydroxythieno[2,3-c]pyridine-2-carboximidamide], the melting point fell in the range of 194 to 196 °C. In the data set with ICAM-1, this molecule yielded an inhibition at 1 µM of 69%. This molecule showed an inhibition at 1 µM with VCAM-1 of 61%. Also, 1 µM produced 75% inhibition with E-Selectin.
For `Cn1c(N)nnc1-c1cc2c(Oc3ccc(Cl)cc3)cncc2s1` [Example 283, 5-[4-(4-Chlorophenoxy)thieno[2,3-c]pyridin-2-yl]-4-methyl-4H-1,2,4-triazol-3-amine] the same measures were 233 to 235 °C, 57%, 52% and 39%.
For `Nc1ccc(-c2cc3c(Oc4ccc(Cl)cc4)cncc3s2)cn1` [Example 274, 5-[4-(4-Chlorophenoxy)thieno[2,3-c]pyridin-2-yl]-2-pyridinamine] the same measures were 208 to 210 °C, 71%, 44% and 65%.
For `NC(=O)c1cc2c(Sc3ccccn3)cncc2s1` [Example 20, 4-(2-pyridinylthio)thieno[2,3-c]pyridine-2-carboxamide] the same measures were 239 to 242 °C, 46%, 26% and 55%.
As to `Nc1noc(-c2cc3c(Oc4ccc(Cl)cc4)cncc3s2)n1` [Example 285, 5-[4-(4-Chlorophenoxy)thieno[2,3-c]pyridin-2-yl]-1,2,4-oxadiazol-3-amine], the melting point is 217 to 219 °C. In addition, the inhibition at 1 µM with ICAM-1 was determined as 65%. Besides, in the data set on VCAM-1, at 1 µM the inhibition was 50%. In addition, at 1 µM the inhibition in the data set with E-Selectin was 56%.
For `OCc1cc2c(Oc3ccc(Cl)cc3)cncc2s1` [Example 90, 4-(4-chlorophenoxy)thieno[2,3-c]pyridine-2-methanol] the same measures were 90 to 91 °C, 51%, 27% and 47%.
For `Cc1nc(-c2cc3c(Oc4ccc(Cl)cc4)cncc3s2)no1` [Example 279, 4-(4-Chlorophenoxy)-2-(5-methyl-1,2,4-oxadiazol-3-yl)thieno[2,3-c]pyridine] the same measures were 120 to 121 °C, 40%, 24% and 30%.
For `CNc1nnc(-c2cc3c(Oc4ccc(Cl)cc4)cncc3s2)s1` [Example 286, 5-[4-(4-Chlorophenoxy)thieno[2,3-c]pyridin-2-yl]-N-methyl-1,3,4-thiadiazol-2-amine] the same measures were 226 to 229 °C, 64%, 46% and 54%.
For `O=C(O)CNC(=O)c1cc2c(Oc3ccc(Cl)cc3)cncc2s1` [Example 159], in the data set with ICAM-1, the “CAM ELISA % Inhibition at 1 μM ICAM-1” value is on record as 45%. Besides, the “CAM ELISA % Inhibition at 1 μM VCAM-1” value in the data set with VCAM-1 is 13%. Further, in the data set with E-Selectin, the “CAM ELISA % Inhibition at 1 μM E-Selectin” value amounted to 30%.
For `NC(=O)c1cc2c(OCc3ccccc3)cncc2s1` [Example 236, 4-(Benzyloxy)thieno[2,3-c]pyljdine-2-carboxamide] the same measures were 59%, 33% and 59%.
In the case of `NC(=O)c1cc2c(SCc3ccc(Cl)cc3)cncc2s1` [Example 54, 4-[[(4-chlorophenyl)methyl]thio]thieno[2,3-c]pyridine-2-carboxamide], the melting point was in the range of 198 to 199 °C. The same molecule gave an inhibition at 1 µM in the data set with ICAM-1 of 59%. The molecule also gave an inhibition at 1 µM with VCAM-1 of 33%. Moreover, the inhibition at 1 µM in the data set on E-Selectin was 74%.
Consider `CSc1nnc(-c2cc3c(Oc4ccc(Cl)cc4)cncc3s2)o1` [Example 281], for which, in the data set on ICAM-1, the “CAM ELISA % Inhibition at 1 μM ICAM-1” value was determined as 25%. The “CAM ELISA % Inhibition at 1 μM VCAM-1” value in the data set on VCAM-1 is reported as 20%. Besides, in the data set on E-Selectin, the “CAM ELISA % Inhibition at 1 μM E-Selectin” value was 18%.
As to `CNC(=O)C(O)C(O)c1cc2c(Oc3ccc(Br)cc3)cncc2s1` (stereo not shown) [Example 261, Methyl 3-[4-(4-Bromophenoxy)thieno[2,3-c]pyridin-2-yl]-2,3-dihydroxypropanamide], the inhibition at 1 µM in the data set on ICAM-1 worked out at 16%; in the data set with VCAM-1, 0%; in the data set on E-Selectin, 20%.
For `Cc1occc1Sc1cncc2sc(C(N)=O)cc12` [Example 53, 4-[(2-methyl-3-fiuranyl)thio]thieno[2,3-c]piridine-2-carboxamide], in the data set on ICAM-1, the “CAM ELISA % Inhibition at 1 μM ICAM-1” value was found to be 67%. Also, in the data set with VCAM-1, the “CAM ELISA % Inhibition at 1 μM VCAM-1” value worked out at 48%. Moreover, the “CAM ELISA % Inhibition at 1 μM E-Selectin” value with E-Selectin is reported as 70%.
`Cc1ccc(Sc2ncnc3c(C)c(C(N)=O)sc23)cc1` [Example 16, 7-methyl-4-[(4-methylphenyl)thio]thieno[3,2-d]pyrimidine-6-carboxamide]: the melting point was in the range of 243 to 246 °C. In addition, testing at 1 µM with ICAM-1 gave an inhibition of 32%. Also, the inhibition at 1 µM in the data set with VCAM-1 turned out to be 19%. This molecule also had an inhibition at 1 µM in the data set with E-Selectin of 35%.
As to `CNC(=O)c1cc2c(Oc3ccc(-c4noc(C(F)(F)F)n4)cc3)cncc2s1` [Example 220, N-Methyl-4-[4-[5-(trifluoromethyl)-1,2,4-oxadiazol-3-yl]phenoxy]thieno[2,3-c]pyridine-2-carboxamide], the inhibition at 1 µM in the data set on ICAM-1 was determined as 51%; in the data set on VCAM-1, 32%; with E-Selectin it was 60%.
Regarding `CNC(=O)c1cc2c(Oc3ccc(C(C)=O)cc3)cncc2s1` [Example 202, 4-(4-Acetylphenoxy)-N-methylthieno[2,3-c]pyridine-2-carboxamide], the inhibition at 1 µM in the data set on ICAM-1 was 68%; in the data set with VCAM-1 it was 49%; in the data set with E-Selectin, 80%.
In the case of `C=C(c1ccccc1)c1cncc2sc(C(N)=O)cc12` [Example 102, 4-(1-phenylethenpl)thieno[2,3-c]pyridine-2-carboxamide], in the data set with ICAM-1, the “CAM ELISA % Inhibition at 1 μM ICAM-1” value is given as 68%. Further, the “CAM ELISA % Inhibition at 1 μM VCAM-1” value in the data set with VCAM-1 stood at 53%. In the data set on E-Selectin, the “CAM ELISA % Inhibition at 1 μM E-Selectin” value was found to be 78%.
In the case of `CNC(=O)c1cc2c(Oc3ccc(/C=C/C(=O)NCCN4CCOCC4)cc3)cncc2s1` [Example 210], in the data set with ICAM-1, the “CAM ELISA % Inhibition at 1 μM ICAM-1” value came to 58%. Further, the “CAM ELISA % Inhibition at 1 μM VCAM-1” value in the data set with VCAM-1 was found to be 42%. In addition, the “CAM ELISA % Inhibition at 1 μM E-Selectin” value with E-Selectin is 64%.
For `OCC(O)c1cc2c(Oc3ccc(Br)cc3)cncc2s1` (stereo not shown) [Example 255, 1-[4-(4-Bromophenoxy)thieno[2,3-c]pjridin-2-yl]-1,2-ethanediol] the same measures were 65%, 19% and 67%.
In the case of `Cc1ccc(Sc2ccnc3cc(C(N)=O)sc23)cc1` [Example 135, 7-[(4-methylphenyl)thio]thieno[3,2-b]pyridine-2-carboxamide], the inhibition at 1 µM in the data set on ICAM-1 was 22%; with VCAM-1, 34%; in the data set on E-Selectin it was 29%.
